Measurements from ChEMBL document CHEMBL4004785, “Spiro Meroterpenoids from Ganoderma applanatum” (J Nat Prod, 2017).

Molecular target: T1, Tyrosine-protein kinase JAK3 (Homo sapiens, UniProt P52333)
T1 sequence (P52333 whole entry): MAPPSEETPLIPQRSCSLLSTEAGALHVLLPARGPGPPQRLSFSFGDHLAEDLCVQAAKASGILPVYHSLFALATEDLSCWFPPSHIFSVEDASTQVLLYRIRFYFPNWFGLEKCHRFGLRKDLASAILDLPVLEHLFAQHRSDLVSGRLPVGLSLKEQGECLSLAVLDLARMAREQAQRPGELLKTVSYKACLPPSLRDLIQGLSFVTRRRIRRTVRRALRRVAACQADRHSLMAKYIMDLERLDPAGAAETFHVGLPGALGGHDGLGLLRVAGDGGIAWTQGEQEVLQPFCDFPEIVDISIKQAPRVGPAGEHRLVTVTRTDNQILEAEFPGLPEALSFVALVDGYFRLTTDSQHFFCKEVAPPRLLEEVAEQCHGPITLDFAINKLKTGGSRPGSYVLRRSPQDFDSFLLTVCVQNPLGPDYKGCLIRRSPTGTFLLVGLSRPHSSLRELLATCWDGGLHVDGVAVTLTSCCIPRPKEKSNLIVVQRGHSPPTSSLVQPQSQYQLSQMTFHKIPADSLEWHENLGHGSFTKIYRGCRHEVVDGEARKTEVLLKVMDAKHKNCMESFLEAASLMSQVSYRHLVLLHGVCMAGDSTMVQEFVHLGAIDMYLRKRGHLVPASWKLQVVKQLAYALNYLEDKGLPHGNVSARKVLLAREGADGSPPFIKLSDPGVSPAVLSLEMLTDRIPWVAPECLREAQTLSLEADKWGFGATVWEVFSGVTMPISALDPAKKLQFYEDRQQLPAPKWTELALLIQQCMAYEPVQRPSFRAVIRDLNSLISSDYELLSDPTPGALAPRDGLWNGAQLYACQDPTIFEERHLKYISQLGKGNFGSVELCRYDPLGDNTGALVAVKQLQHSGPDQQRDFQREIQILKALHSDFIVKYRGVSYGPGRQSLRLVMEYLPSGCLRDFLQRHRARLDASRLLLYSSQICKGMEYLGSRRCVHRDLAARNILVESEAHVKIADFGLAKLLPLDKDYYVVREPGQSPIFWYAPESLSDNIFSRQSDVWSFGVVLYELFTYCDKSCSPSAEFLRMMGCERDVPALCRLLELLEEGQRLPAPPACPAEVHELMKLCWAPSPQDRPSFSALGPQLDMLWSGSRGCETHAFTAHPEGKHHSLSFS
Assay: Inhibition of human recombinant GST-tagged JAK3 cytoplasmic domain (781 to 1124 residues) expressed in baculovirus expression system incubated for 1 hr by FRET-based Z'-Lyte assay

Row | IC50 | SMILES
1 | 34.8 µM | O=CC1=CCC[C@@H](C(=O)O)[C@@]2(C1)Oc1ccc(O)cc1C2=O
2 | 7 µM | O=CC1=CCC[C@@H](C(=O)O)[C@]2(C1)Oc1ccc(O)cc1C2=O
